Calls of active or inactive are those of the source.

Data set [1] concerns the target FAD-linked sulfhydryl oxidase ALR (Homo sapiens, UniProt P55789). The data set is described as follows: ALR-catalysed DTT oxidation blockers – biochemical, H2O2 detection, luminescence, cherry-pick, dose response (AID 493248).
Data set [2] has as its target T1, Short transient receptor potential channel 4 (Mus musculus, UniProt Q9QUQ5).
T1 sequence (Q9QUQ5 whole entry): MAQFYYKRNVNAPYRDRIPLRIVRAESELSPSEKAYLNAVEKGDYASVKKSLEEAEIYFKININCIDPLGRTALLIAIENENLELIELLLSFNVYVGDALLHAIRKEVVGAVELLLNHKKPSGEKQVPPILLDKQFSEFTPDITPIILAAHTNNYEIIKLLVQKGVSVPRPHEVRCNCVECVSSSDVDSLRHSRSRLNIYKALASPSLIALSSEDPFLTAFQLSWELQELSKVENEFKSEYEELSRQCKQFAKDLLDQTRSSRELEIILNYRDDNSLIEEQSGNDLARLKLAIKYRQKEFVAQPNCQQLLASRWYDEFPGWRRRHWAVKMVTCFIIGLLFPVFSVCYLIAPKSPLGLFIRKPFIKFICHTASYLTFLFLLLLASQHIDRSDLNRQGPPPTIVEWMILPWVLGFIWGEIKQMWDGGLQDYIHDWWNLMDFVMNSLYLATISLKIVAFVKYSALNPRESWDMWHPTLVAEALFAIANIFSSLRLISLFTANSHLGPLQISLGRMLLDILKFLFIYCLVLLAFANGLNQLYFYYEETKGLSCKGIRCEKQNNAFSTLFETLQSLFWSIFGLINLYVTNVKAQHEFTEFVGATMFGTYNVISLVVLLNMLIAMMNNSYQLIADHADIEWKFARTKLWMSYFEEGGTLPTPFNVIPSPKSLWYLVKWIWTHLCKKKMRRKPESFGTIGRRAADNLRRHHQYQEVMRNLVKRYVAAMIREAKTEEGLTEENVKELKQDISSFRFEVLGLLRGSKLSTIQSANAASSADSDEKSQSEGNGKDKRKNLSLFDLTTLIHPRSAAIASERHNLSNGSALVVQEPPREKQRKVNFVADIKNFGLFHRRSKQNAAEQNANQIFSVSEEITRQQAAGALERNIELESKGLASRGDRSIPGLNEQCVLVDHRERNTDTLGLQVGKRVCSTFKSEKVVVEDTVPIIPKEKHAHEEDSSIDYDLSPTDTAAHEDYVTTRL
The data set is described as follows: calcium entry via TRPC4 opening agents – cell-based, HEK293 TRPC4/mu-opioid, Fluo-4 calcium, dose response (AID 434937). The format is functional.

Data set [3] deals with T2, Polyadenylate-binding protein 1 (Homo sapiens, UniProt P11940). In words: MLLE binding blockers, Cy5 peptide tracer – biochemical, fluorescence polarization, Cy5-PAM2 peptide, secondary, miRNA deadenylation inhibitor project, dose response (AID 602260). The following applies: read-out: IC50_Mean. In kind it is functional.
Data set [4] addresses T2, Polyadenylate-binding protein 1. The data set is described as follows: MLLE domain peptide-binding blockers, IC50 – biochemical, fluorescence polarization, FITC-PAM2 peptide, dose response (AID 602259). The conditions noted are these: read-out: IC50_Mean. In kind it is functional.
In data set [5] the target is T3, Corticotropin-releasing factor receptor 2/Corticotropin-releasing factor-binding protein (Homo sapiens, UniProt P24387+Q13324).
T3 sequence (Q13324 whole entry): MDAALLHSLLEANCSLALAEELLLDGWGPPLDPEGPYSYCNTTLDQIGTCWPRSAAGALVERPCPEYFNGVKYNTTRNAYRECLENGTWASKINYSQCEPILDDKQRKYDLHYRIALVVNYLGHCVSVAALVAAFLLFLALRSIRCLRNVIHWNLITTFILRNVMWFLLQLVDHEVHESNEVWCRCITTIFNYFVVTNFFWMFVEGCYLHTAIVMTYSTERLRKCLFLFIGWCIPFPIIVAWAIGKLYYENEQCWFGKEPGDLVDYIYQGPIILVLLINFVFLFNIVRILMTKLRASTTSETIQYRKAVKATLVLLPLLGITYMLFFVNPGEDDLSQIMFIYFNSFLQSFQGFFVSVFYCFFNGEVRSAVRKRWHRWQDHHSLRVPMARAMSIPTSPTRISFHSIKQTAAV
T3 sequence (P24387 whole entry): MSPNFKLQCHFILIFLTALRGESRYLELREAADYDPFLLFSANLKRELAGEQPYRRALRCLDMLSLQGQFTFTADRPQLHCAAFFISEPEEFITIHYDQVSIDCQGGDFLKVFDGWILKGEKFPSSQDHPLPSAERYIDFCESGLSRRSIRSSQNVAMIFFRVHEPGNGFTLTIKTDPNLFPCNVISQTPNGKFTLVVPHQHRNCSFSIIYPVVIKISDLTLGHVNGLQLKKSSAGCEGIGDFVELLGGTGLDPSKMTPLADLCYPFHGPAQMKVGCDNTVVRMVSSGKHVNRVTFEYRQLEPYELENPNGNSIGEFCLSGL
In words: activators of CRF receptor 2 with binding protein – uHTS hits, confirmation (AID 602473). The format is functional. The following applies: read-out: EC50_Mean.

The target in a further data set is Cytochrome P450 2C19 (Homo sapiens, UniProt P33261). The data set is described as follows: Cytochrome panel assay with activity outcomes. Panel member name: p450-cyp2c19 Compounds with AC50 equal or less than 10 uM are considered active. The format is functional. The following applies: read-out: AC50.
Another data set addresses Cytochrome P450 3A4 (Homo sapiens, UniProt P08684).
For a further data set, the target named is Cytochrome P450 2C9 (Homo sapiens, UniProt P11712).
In a further data set the target is T4, Leucine aminopeptidase (Plasmodium falciparum 3D7, UniProt Q8IL11).
T4 sequence (Q8IL11 whole entry): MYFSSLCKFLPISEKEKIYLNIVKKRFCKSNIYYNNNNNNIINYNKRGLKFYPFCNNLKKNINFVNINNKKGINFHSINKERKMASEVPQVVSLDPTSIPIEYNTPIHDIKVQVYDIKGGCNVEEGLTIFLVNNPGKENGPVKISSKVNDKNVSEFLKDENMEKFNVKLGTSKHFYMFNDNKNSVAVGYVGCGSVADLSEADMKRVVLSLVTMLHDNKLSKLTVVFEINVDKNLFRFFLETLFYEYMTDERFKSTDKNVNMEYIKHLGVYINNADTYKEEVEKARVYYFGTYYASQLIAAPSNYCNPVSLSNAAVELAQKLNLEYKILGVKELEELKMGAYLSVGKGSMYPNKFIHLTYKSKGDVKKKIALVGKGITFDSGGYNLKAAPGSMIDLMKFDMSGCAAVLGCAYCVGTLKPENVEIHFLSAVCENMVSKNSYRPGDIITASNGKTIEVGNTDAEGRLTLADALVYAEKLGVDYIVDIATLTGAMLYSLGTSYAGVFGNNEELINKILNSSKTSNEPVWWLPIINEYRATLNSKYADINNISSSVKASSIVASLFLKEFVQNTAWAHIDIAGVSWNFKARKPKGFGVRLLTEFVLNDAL
The data set is described as follows: P. falciparum M17LAP inhibitors, primary screen, biochemical, fluorogenic H-Leu-NHMec substrate, 1536-well (AID 1619). The format is functional.

Data set [6] concerns the target T5, Microphthalmia-associated transcription factor (Homo sapiens, UniProt O75030).
T5 sequence (O75030 whole entry): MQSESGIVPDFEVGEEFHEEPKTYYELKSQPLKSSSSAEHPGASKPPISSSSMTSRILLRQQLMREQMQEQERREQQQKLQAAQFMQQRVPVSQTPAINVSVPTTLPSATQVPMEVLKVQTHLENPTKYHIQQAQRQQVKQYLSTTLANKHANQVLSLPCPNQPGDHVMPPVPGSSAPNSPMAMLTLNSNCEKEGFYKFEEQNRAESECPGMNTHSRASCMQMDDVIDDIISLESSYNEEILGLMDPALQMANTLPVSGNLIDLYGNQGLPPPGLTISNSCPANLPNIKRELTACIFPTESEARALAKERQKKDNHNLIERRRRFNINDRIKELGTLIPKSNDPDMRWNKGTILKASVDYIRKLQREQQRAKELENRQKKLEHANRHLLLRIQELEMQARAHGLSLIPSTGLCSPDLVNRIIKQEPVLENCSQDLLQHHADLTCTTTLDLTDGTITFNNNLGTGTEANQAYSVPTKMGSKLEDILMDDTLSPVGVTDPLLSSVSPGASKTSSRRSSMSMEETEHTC
In words: reducers of TRPM1 reporter luminescence, concentration series – cell-based, SK-MEL-5, cherry-picked, set 3, MITF inhibitor project, dose response (AID 493073).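 Note: SK-MEL-5 melanoma cells with luciferase driven by the MITF target TRPM1 promoter.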 In kind it is functional.

Data set [7] deals with T6, High affinity choline transporter 1 (Homo sapiens, UniProt Q9GZV3).
T6 sequence (Q9GZV3 whole entry): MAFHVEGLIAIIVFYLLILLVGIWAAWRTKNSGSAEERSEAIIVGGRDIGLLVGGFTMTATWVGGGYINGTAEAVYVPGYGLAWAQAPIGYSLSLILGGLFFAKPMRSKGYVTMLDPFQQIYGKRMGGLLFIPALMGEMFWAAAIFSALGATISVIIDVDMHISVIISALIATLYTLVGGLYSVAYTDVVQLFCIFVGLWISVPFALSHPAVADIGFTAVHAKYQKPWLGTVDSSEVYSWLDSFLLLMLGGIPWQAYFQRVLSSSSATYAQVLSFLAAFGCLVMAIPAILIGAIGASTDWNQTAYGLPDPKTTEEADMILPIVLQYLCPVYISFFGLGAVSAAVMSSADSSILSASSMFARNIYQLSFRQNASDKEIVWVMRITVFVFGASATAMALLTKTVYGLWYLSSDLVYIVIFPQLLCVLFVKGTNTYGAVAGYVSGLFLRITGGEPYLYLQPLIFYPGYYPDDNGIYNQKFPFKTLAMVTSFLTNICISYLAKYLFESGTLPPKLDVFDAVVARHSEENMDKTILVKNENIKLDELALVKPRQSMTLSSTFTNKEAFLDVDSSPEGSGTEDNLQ
In words: human choline transporter blockers, potency – cell-based, 5-point CRC, membrane potential dye, dose response (AID 504840). The format is functional.

Data set [8] can be described thus: Trypanosoma cruzi growth suppression in host cells – NIH3T3 host cells, beta-gal luminescence, confirmation (AID 2044).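 Note: intracellular parasites grown in NIH/3T3 mouse fibroblasts as host cells; luminescent beta-galactosidase reporter signal from transgenic T. cruzi replicating inside host cells; inhibitors lower the luminescence signal.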 The format is functional, cell-based.
Data set [9] in a line: NIH3T3 cell viability loss – ATP luminescence, mouse fibroblasts, counter-screen, dose response (AID 2010).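 Note: cells exposed to compound for about 90 hours before reading.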 In kind it is functional, cell-based.
Data set [10] can be described thus: blockers of HIV-1 ZM109 envelope-driven cell-cell fusion – HeLa effector, CEM target cells, luciferase, cherry-pick, dose response (AID 652058).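 Note: luciferase signal from HIV-1 Env mediated cell-cell fusion of effector and target cells.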 In kind it is functional, cell-based.

Sequence of Cytochrome P450 2C9 (P11712 whole entry): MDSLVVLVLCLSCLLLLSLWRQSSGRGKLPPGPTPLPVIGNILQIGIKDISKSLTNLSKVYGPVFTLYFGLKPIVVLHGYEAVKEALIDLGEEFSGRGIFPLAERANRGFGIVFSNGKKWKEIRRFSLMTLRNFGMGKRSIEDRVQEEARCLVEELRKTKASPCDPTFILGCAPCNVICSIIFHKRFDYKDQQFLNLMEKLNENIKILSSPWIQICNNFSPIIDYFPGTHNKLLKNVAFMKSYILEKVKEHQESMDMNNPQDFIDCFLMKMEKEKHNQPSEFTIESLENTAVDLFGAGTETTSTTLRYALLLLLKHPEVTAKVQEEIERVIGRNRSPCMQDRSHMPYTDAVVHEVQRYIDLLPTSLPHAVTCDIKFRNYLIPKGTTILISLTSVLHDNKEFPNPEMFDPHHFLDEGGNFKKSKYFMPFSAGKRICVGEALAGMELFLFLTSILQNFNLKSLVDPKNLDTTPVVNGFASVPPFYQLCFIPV
Sequence of FAD-linked sulfhydryl oxidase ALR (P55789 whole entry): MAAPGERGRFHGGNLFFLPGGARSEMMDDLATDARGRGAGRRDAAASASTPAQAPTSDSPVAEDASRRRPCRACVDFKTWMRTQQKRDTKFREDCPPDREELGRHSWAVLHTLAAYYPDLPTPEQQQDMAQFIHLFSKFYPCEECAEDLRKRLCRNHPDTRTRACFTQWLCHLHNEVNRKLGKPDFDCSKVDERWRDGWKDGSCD
T2 sequence (P11940 whole entry, the tested form may be a part): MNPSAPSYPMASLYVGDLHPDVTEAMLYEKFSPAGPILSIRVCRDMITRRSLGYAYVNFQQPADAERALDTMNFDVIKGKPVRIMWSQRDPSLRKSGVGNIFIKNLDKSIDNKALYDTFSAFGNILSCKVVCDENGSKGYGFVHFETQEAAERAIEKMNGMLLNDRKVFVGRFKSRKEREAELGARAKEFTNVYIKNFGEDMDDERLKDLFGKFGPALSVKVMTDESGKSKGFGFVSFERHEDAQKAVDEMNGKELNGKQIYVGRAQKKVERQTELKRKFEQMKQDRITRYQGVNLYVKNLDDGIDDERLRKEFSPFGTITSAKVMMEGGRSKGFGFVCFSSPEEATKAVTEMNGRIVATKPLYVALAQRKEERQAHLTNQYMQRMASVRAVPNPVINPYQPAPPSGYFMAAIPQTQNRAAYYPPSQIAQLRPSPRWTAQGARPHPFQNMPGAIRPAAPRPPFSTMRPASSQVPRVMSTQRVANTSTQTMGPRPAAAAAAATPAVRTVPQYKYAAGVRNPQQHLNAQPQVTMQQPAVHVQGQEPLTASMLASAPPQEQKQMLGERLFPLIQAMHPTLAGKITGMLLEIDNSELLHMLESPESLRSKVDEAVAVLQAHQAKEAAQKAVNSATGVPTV
Sequence of Cytochrome P450 2C19 (P33261 whole entry): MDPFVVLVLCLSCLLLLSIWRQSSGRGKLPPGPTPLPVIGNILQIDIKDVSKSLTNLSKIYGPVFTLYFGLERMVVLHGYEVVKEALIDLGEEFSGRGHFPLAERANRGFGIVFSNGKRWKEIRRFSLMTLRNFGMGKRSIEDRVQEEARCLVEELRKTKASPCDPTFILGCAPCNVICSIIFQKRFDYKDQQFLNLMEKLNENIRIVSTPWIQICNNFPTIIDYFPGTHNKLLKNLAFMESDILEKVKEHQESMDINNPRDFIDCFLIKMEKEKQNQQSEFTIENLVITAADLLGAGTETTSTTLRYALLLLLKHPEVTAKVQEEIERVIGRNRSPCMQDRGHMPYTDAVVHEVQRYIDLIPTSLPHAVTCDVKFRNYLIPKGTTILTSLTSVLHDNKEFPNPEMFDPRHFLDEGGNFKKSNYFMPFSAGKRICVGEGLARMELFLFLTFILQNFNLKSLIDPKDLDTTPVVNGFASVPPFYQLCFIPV
Sequence of Cytochrome P450 3A4 (P08684 whole entry): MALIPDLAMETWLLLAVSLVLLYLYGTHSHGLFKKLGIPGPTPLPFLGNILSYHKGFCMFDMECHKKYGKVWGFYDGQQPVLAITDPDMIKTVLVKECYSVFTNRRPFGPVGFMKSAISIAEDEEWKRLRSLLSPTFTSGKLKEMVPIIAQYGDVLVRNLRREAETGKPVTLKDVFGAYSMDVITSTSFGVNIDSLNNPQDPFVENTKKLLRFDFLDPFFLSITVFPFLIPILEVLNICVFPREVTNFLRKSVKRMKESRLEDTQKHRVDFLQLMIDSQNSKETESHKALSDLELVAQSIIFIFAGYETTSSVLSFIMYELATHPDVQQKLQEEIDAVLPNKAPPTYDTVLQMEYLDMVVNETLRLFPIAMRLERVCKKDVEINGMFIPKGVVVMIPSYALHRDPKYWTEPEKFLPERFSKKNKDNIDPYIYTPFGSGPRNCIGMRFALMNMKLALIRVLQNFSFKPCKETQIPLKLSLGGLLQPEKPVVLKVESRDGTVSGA

As for `CCCNC(=O)c1cc2c3ccccc3n(C)c2s1`, the AC50 in [1] is 0.137 µM (active). With `CC12CCCCN1CCCc1c2[nH]c2ccccc12` (stereo not given), the values for the EC50 in data set [2] and in data set [5] were 4.22 µM (active) and 4.38 µM (active), respectively. Moreover, the IC50 in [3] and in data set [4] was > 66 µM (inactive) throughout. Regarding `CCOC(=O)C1(CCCc2ccccc2)CCN(Cc2cn(CC)nc2C)CC1`, the EC50 in [2] is 0.119 µM (active). With `COc1ccc(/C=C/CN2CCCC(C(=O)c3ccc(OC)c(F)c3)C2)cc1` (stereo not given), the EC50 in data set [2] is 10.6 µM (active). Take `O=S(=O)(Nc1ccccc1O)c1ccc2[nH]c(O)nc2c1`: the AC50 in [1] was 2.1 µM (active).

With `Cc1ccc(N2C(=O)CC(NNC(=O)c3cccc(S(=O)(=O)N4CCCC4)c3)C2=O)cc1` (stereo not given), the AC50 in data set [1] is 9.56 µM (active). With `COc1ccc(NC(=O)c2cc(-c3ccccc3Cl)no2)cc1`, the AC50 is 2.82 µM (inconclusive) at Cytochrome P450 2C19, 20 µM (inconclusive) on Cytochrome P450 3A4 and “inconclusive” at Cytochrome P450 2C9. For the compound `C=CCn1c(SCc2ccc(C(=O)O)cc2)nc2sc(C)c(C)c2c1=O`, the AC50 in data set [1] was 4.74 µM (active). On to `CCN1CCN(c2c(Cl)cccc2NC(=O)c2ccc([N+](=O)[O-])cc2)CC1`, for which, in data set [2], the EC50 is 0.421 µM (active).

`CC(/C=C1\SC(=O)N(CCCC(=O)O)C1=O)=C\c1ccccc1`: the values for the IC50 (on Leucine aminopeptidase; in data set [7]) were 15.8 µM (active) and 12.6 µM (active), respectively. The AC50 in data set [1] is 4.84 µM (active); in data set [6], 2.36 µM (active). Turning to `Cc1cc(Br)cc(C)c1OCCCCN(C)C.O=C(O)C(=O)O`, the EC50 in [8] was 0.196 µM (active); in data set [9], > 30 µM (not active). Besides, at Cytochrome P450 2C9, the AC50 entry is “inconclusive”.

Take `O=C(Nc1ccc(Cl)cc1)N1CCC(c2nc(-c3cccs3)no2)CC1`: the EC50 in data set [2] is 3.35 µM (active). As for `O=C(COc1ccc2ccccc2c1Br)NNC(=O)Nc1ccccc1`, on Cytochrome P450 2C9, the AC50 entry is listed as “inconclusive”.

On to `Cc1c(C)c(C)c(C(=O)CCc2cccc(NC(=O)CCC(=O)O)c2)c(C)c1C`, for which the AC50 in [1] is 1.72 µM (active). For the compound `C[C@@H]1CN([C@H](C)CO)C(=O)c2cccc(NC(=O)c3cnccn3)c2O[C@H]1CN(C)Cc1ccccc1`, the AC50 in [10] is 36.6 µM (active).

The values above are taken from ChEMBL document CHEMBL1201862, “PubChem BioAssay data set” (2004).
